The values below come from the AptaBench aptamer set (doi:10.1093/nar/gkaf219).

The structures appear in SMILES notation.

Conditions in all cases: 10 mM Tris-HCl, pH 7.4
Assay [1] deals with DNA aptamer or structured DNA GGGACGACGCCGGCTTCTAGGGGGGGTGTGGGTGGCGAGTCGTCCC
The test system of assay [2] is DNA aptamer or structured DNA GGGACGACTAGCGCATGCGTTGTTCGAGGATACGAGTAGTCGTCCC
For assay [3], the system named is DNA aptamer or structured DNA GGGACGACGCGTACCATGGGTAGTTGCACGTCGTCCAAGTCGTCCC
The test system of assay [4] is DNA aptamer or structured DNA GGGACGACATGCGTCGAAAAGACCCCTGAGGGCAGCTGGTCGTCCC
The subject of assay [5] is DNA aptamer or structured DNA GGGACGACGCGTACCTGTGGTAGTTGTACGTCGTTCAAGTCGTCCC
Assay [6] has as its system DNA aptamer or structured DNA CTTACGACATCTGCGTGTGGCCGGTGTGAGGGAGGGATGTCGTAAG
For assay [7], the system named is DNA aptamer or structured DNA CTTACGACCGGTGGGGAGGCCGGAGTTGGGAACGGGGGGTCGTAAG
Assay [8] has as its system DNA aptamer or structured DNA GGGACGACCGTTGTTCGAGCCTTGAGTACCATTGGTAGGTCGTCCC
The test system of assay [9] is DNA aptamer or structured DNA GGGACGACGGAGGTTTAGGGTTTAGGTAGTGGGTTGAAGTCGTCCC
Assay [10] deals with DNA aptamer or structured DNA GGGACGACAGAATGGCAGCATTGGTGAGTTGTTTGCCTGTCGTCCC
Assay [11] has as its system DNA aptamer or structured DNA GGGACGACGCGTACTTCCAGTAGCCGTGCGTCGTTCAAGTCGTCCC
Assay [12] deals with DNA aptamer or structured DNA GGGACGACGCGTACCTGTGGTAGTCGTACGTCGTTCAAGTCGTCCC
Assay [13] concerns DNA aptamer or structured DNA GGGACGACTAGTGCCTTCGCGTTGTACGGGAATCCGGTTCTGTCGTCCC
For assay [14], the system named is DNA aptamer or structured DNA GGGACGACCCGTAGGGGTACACGCTCTATGGGGGCTGGGTCGTCCC
In assay [15] the test system is DNA aptamer or structured DNA GGGACGACATCGTAGGGGCACACGCTTAACGGGCTGATGTCGTCCC
The subject of assay [16] is DNA aptamer or structured DNA GGGACGACAGGGATTCGGTTCTCGATAAGTAGTGCCTCGTACGTCGTCCC
For assay [17], the system named is DNA aptamer or structured DNA GGGACGACTAGTGCCTTCGCGTTGTTCGGGAATCCGGTTCCGTCGTCCC
Assay [18] relates to DNA aptamer or structured DNA GGGACGACCCGTAGGGGTACACGCTCTATAGGGGCTGGGTCGTCCC
The subject of assay [19] is DNA aptamer or structured DNA GGGACGACGGATTGCGCTTGCTAACGCCGTGTAGAGTCGTCGTCCC
In assay [20] the test system is DNA aptamer or structured DNA GGGACGACCGGACTTGGGTGGGTGCTGGGGCTTGGGCGGTCGTCCC
For assay [21], the system named is DNA aptamer or structured DNA GGGACGACGGGGATTCGGTTCGTCATTTGGCAGTGCCTCGTCTGTCGTCCC
In assay [22] the test system is DNA aptamer or structured DNA GGGACGACAGGGATTCGGTCTTGGTACATAGGGGCCTCGTCTGTCGTCCC
In assay [23] the test system is DNA aptamer or structured DNA GGGACGACTAGTGCCTTCGCGTTGTTCGGGAATCCGGTTCTGTCGTCCC
The test system of assay [24] is DNA aptamer or structured DNA CTTACGACGGTGGGGGGTTGGTAGGGGAGGAGCGCATCGTCGTAAG
Assay [25] has as its system DNA aptamer or structured DNA GGGACGACAAGTCAGGCCTGTCTCAGCGAGTTCGACATGTCGTCCC
Assay [26] has as its system DNA aptamer or structured DNA GGGACGACGCAGCAGTCCATCTCTCAGCGAGTTCGTCAGTCGTCCC
In assay [27] the test system is DNA aptamer or structured DNA GGGACGACCAGAATGGAAGCATTGGTTGCCGCAGGGTGCCGCAGTCGTCCC
Assay [28] deals with DNA aptamer or structured DNA GGGACGACATGGGATGGAGCTATGCGAGCATGTGGTGTGTCGTCCC
Assay [29] deals with DNA aptamer or structured DNA GGGACGACGCGCATGTGGTGTCGGTCAGATGGGATGAAGTCGTCCC
For assay [30], the system named is DNA aptamer or structured DNA GGGACGACGGGGGGAGTTTGTTTGTGTGGGAGGGTCCAGTCGTCCC
Assay [31] concerns DNA aptamer or structured DNA GGGACGACGGCACGAGGTTAATCGTTGGTTGCACTGCGCTGGGAGGCAGTCGTCCC
The test system of assay [32] is DNA aptamer or structured DNA GGGACGACGGCACGGGGTTATTCGTTGGTTGCACTGCGCTGGGAGGCAGTCGTCCC
Assay [33] deals with DNA aptamer or structured DNA GGGACGACGGCACGAGGTAATTCGTTGGTTGCACTGCGCTGGGAGGCAGTCGTCCC
The test system of assay [34] is DNA aptamer or structured DNA TTCAAATCTGGTGCCCTTTCGCAGTCGGTTGGTAATGAGACCACTTTAGAGTCTAGATTTGAA
In assay [35] the test system is DNA aptamer or structured DNA GGGACGACGGGGATTCGGTTCGTCATTTGGCAGTGCCTCGTACGTCGTCCC
Throughout, for binding call: call rule not given here.

`CC(=O)Oc1ccc2c3c1O[C@H]1[C@@H](OC(C)=O)C=C[C@H]4[C@@H](C2)N(C)CC[C@@]341`: the binding call is “no binding” in assay [1]; “binds” in assay [6]; “no binding” in assay [7]; “no binding” in [9]; “no binding” in assay [10]. The Kd in assay [2] stood at 2.67 µM; in assay [3], 5.62 µM; in [4], 1.11 µM; in assay [5], 4.13 µM; in assay [8], 2.28 µM; in assay [11], 4.08 µM. Also, the Kd in [12] came out at 4.52 µM.

As for `CN(C)CCOC(c1ccccc1)c1ccccc1`, the binding call in assay [1], in assay [13], in assay [14], in assay [15], in assay [16] and in assay [17] was “no binding” each time. Also, the binding call in assay [18] was “no binding”; in assay [7] it was “no binding”; in [9] it was “binds”; in [19], “no binding”; in assay [20], “no binding”; in [21], “no binding”.

On to `NCCc1c[nH]c2ccc(O)cc12`, for which the binding call in assay [1] is given as “no binding”; in assay [13], “no binding”; in assay [16] it was “no binding”; in assay [17], “no binding”; in assay [22], “no binding”; in assay [23], “binds”. Further, in assay [24], the binding call is listed as “no binding”.

Take `COc1ccc2c3c1O[C@H]1C(=O)CC[C@@]4(O)[C@@H](C2)N(C)CC[C@]314`: the binding call in [1] is listed as “binds”; in assay [27], “no binding”; in [9], “no binding”; in assay [10] it was “no binding”. Besides, the equilibrium dissociation constant (Kd) in assay [25] was 0.45 µM; in [26], 2.22 µM; in assay [28] it was 3.19 µM; in [14], 0.5 µM; in assay [15] it was 1.42 µM; in [18] it was 0.41 µM. Further, the Kd in [29] was 3.7 µM; in assay [30], 1.75 µM; in [19] it was 2.16 µM; in assay [20], 1.69 µM.

Consider `CN1C(=O)CN=C(c2ccccc2)c2cc(Cl)ccc21`, for which the binding call in assay [25] was “no binding”; in assay [4], “no binding”; in [14] it was “no binding”; in assay [15], “no binding”; in assay [29], “binds”; in [19], “no binding”.

On to `CCOC(=O)c1ccc(N)cc1`, for which the binding call in assay [25], in assay [4], in assay [14], in assay [7], in assay [8] and in assay [10] was “no binding” in each case. Moreover, the binding call in [20] and in assay [24] was “no binding” each time.

Take `O=C1CC[C@@]2(O)[C@H]3Cc4ccc(O)c5c4[C@@]2(CCN3CC2CC2)[C@H]1O5`: the binding call in assay [2], in assay [25], in assay [3], in [4], in assay [13] and in assay [5] was “no binding” each time. Moreover, the binding call in assay [14], in assay [15], in assay [16], in assay [18], in assay [22] and in assay [10] was “no binding” each time. The binding call in assay [11], in assay [20], in [21] and in assay [12] was “no binding” in each case.

Consider `COC(=O)[C@@H]1C2CCC(C[C@@H]1OC(=O)c1ccccc1)N2C` (some centres not stated), for which the binding call in assay [1], in assay [27], in [28] and in assay [9] was “no binding” each time. In assay [24], this compound had an equilibrium dissociation constant (Kd) of 1.1 µM.

In the case of `C=CCN1CC[C@]23c4c5ccc(O)c4O[C@H]2C(=O)CC[C@@]3(O)[C@H]1C5`, the binding call in assay [3] is “no binding”; in assay [28], “no binding”; in assay [5], “no binding”; in [14] it was “binds”; in assay [15], “binds”; in assay [16] it was “no binding”. In addition, the binding call is on record as “binds” in assay [18]; “no binding” in assay [22]; “no binding” in [8]; “no binding” in assay [10]; “no binding” in [11]; “no binding” in assay [20]. Also, the binding call in assay [21] and in assay [12] was “no binding” throughout.

`C=C[C@H]1CN2CC[C@@H]1C[C@H]2[C@H](O)c1ccnc2ccc(OC)cc12`: the binding call in assay [2] is “no binding”; in [31], “no binding”; in assay [32], “binds”; in assay [28] it was “binds”; in assay [33], “no binding”; in assay [15], “no binding”. For the same compound, the binding call in assay [17], in assay [7], in [22], in assay [23], in assay [11] and in assay [21] was “no binding” in each case.

As for `NCCc1ccc(O)c(O)c1`, the binding call in assay [31] was “binds”; in assay [32], “no binding”; in assay [13], “no binding”; in [34], “binds”; in [33] it was “binds”; in [16], “no binding”. For the same compound, the binding call is reported as “no binding” in assay [22]; “binds” in [23]; “no binding” in assay [35]; “no binding” in assay [21]; “no binding” in assay [24].
